Data reported in patent US11419806B2, “Prebiotic oral care methods using a saccharide” (Colgate-Palmolive Company, priority 2013, dated 2022).

Assays:
Format in all cases: cell-based
[1] = test system: beneficial oral bacteria and pathogenic oral bacteria; assay: Microarray screen, overall prebiotic assessment; conditions: 48 hrs
Method: Substrates that were able to increase the metabolic activity of at least one of the above beneficial bacteria while not or only minimally increasing the growth of the pathogenic bacteria are considered to be prebiotic substrates.
(§1) The extent of metabolic activity of the tested bacteria in the presence of the above-mentioned saccharides after 24 hours and 48 hours was investigated through a high throughput phenotype microarray system (PM) for microbial cells (Biolog Inc.). Each PM can contain up to 95 different biochemical compounds (e.g. saccharides) that may act as substrates for bacteria as well as one negative control, not containing the substrates. Microarray plates were used in which the different wells of each plate were pre-loaded (by the manufacturer, Biolog Inc.) with different saccharides to be tested. Each bacterial species was tested using a separate microarray plate. Thus, a single bacterial species was tested with a variety of saccharides on each particular plate. The microarrays are based on redox technology, using cell respiration as a universal reporter. Active cell respiration results in the reduction of a tetrazolium dye and in the formation of a strong color—for example, when using the tetrazolium dye “Biolog Redox Dye Mix D”, the color changes from transparent/colorless to purple when the dye is reduced. The observation of this color change indicates which of the substrates improve the metabolic activity and health of the cells.
(§2) Each bacterial species was collected from blood agar plates (incubated for 48 hours anaerobically at 37° C.) and transferred to an IF-0 Base inoculation fluid (Biolog Inc.), which is a nutritionally poor medium. The resulting cell suspension was adjusted to a transmittance of 42% (relative to the transmittance of the base inoculation fluid with no bacterial species present) at 492 nm using a BioRad SmartSpec 3000 Photometer (the adjustment being effected by adding either further inoculation fluid or further bacteria until the transmittance of 42% was achieved). A 1:5 dilution of this suspension was prepared by mixing 3 mL of the 42% transmittance cell suspension with 15 mL of an inoculation fluid (which inoculation fluid was formed by mixing 11.6 mL sterile water, 62.5 mL IF-0 base inoculation fluid and 0.9 mL of the tetrazolium dye “Biolog Redox Dye mix D”), resulting in a final cell density which was equal to 85% transmittance using a BioRad SmartSpec 3000 Photometer. For each of the saccharides tested, the microarray plate (obtained from the supplier (Biolog Inc.) with saccharides already present in the relevant wells in powder form) was directly inoculated with 100 μL/well of this 85% transmittance cell suspension.
(§3) All plates were incubated in an anaerobic atmosphere at 37° C. Color changes were measured spectrophotometrically at 492 nm (Thermo Scientific Multiskan Ascent) at 24 hrs and 48 hrs using the same plate at both time points. […] After 24 hrs and 48 hrs under continuous shaking in a Multiscan microplate reader, the optical density (OD) of the synthetic medium at 24 hours and 48 hours was measured (using the microplate reader) at a wavelength of 492 nm for each combination of bacterium/saccharide, and for each of their respective controls (i.e. which contained the particular bacterium but no saccharide).
(§4) The experiment was carried out three times for each combination of bacterium with saccharide, with each repeat being carried out on a different day (thus providing three biological replicas). The controls were also carried out three times, as above. The values shown are the average (mean) of the three single values obtained (as detailed above) for each combination of bacterium with saccharide, at 24 hrs and at 48 hrs.
This value was selected in order to exclude low-stimulating metabolites and avoid false positive results.

S sanguinis = assay: Phenotype microarray metabolic activity
Method: as §1, §2, §3, §4

Tannerella forsythia = assay: Phenotype microarray metabolic activity; conditions: T forsythia
Method: as §1, §2, §3, §4

Streptococcus mutans = assay: Phenotype microarray metabolic activity; conditions: S mutans
Method: as §1, §2, §3, §4

[2] = test system: Aggregatibacter actinomycetemcomitans; assay: Phenotype microarray metabolic activity; conditions: A actinomycetemcomitans
Method: as §1, §2, §3, §4

Prevotella intermedia = assay: Phenotype microarray metabolic activity; conditions: P intermedia
Method: as §1, §2, §3, §4

Streptococcus mitis = assay: Phenotype microarray metabolic activity; conditions: S mitis
Method: as §1, §2, §3, §4

Fusobacterium nucleatum = assay: Phenotype microarray metabolic activity; conditions: F nucleatum
Method: as §1, §2, §3, §4

Streptococcus gordonii = assay: Phenotype microarray metabolic activity; conditions: S gordonii
Method: as §1, §2, §3, §4

Streptococcus sobrinus = assay: Phenotype microarray metabolic activity; conditions: S sobrinus
Method: as §1, §2, §3, §4

Capnocytophaga sputigena = assay: Phenotype microarray metabolic activity; conditions: C sputigena
Method: as §1, §2, §3, §4

Streptococcus salivarius = assay: Phenotype microarray metabolic activity; conditions: S salivarius
Method: as §1, §2, §3, §4

Actinomyces naeslundii = assay: Phenotype microarray metabolic activity; conditions: A naeslundii
Method: as §1, §2, §3, §4

Veillonella parvula = assay: Phenotype microarray metabolic activity; conditions: V parvula
Method: as §1, §2, §3, §4

Actinomyces viscosus = assay: Phenotype microarray metabolic activity; conditions: A viscosus
Method: as §1, §2, §3, §4

Porphyromonas gingivalis = assay: Phenotype microarray metabolic activity; conditions: P gingivalis
Method: as §1, §2, §3, §4

OC[C@H]1O[C@@](CO)(O[C@H]2O[C@H](CO)[C@@H](O)[C@H](O)[C@H]2O)[C@@H](O[C@H]2O[C@H](CO)[C@@H](O)[C@H](O)[C@H]2O)[C@@H]1O [D-Melezitose, (2R,3R,4S,5S,6R)-2-[[(2S,3S,4R,5R)-4-hydroxy-2,5-bis(hydroxymethyl)-3-[[(2R,3R,4S,5S,6R)-3,4,5-trihydroxy-6-(hydroxymethyl)-2-tetrahydropyranyl]oxy]-2-tetrahydrofuranyl]oxy]-6-(hydroxymethyl)tetrahydropyran-3,4,5-triol]
prebiotic effects (metabolic activity, threshold value 2) [1]: exhibited prebiotic effects | metabolic activity: OD 492 nm divided by OD of control (control = 1) (S sanguinis; 24 hrs): 1.0227 | metabolic activity: OD 492 nm divided by OD of control (control = 1) (S sanguinis; 48 hrs): 1.0532 | metabolic activity: OD 492 nm divided by OD of control (control = 1) (Tannerella forsythia; 24 hrs): 1.0374 | metabolic activity: OD 492 nm divided by OD of control (control = 1) (Tannerella forsythia; 48 hrs): 0.9912 | metabolic activity: OD 492 nm divided by OD of control (control = 1) (Streptococcus mutans; 24 hrs): 1.0420 | metabolic activity: OD 492 nm divided by OD of control (control = 1) (Streptococcus mutans; 48 hrs): 0.9402 | metabolic activity: OD 492 nm divided by OD of control (control = 1) ([2]; 24 hrs): 0.8425 | metabolic activity: OD 492 nm divided by OD of control (control = 1) ([2]; 48 hrs): 0.7710 | metabolic activity: OD 492 nm divided by OD of control (control = 1) (Prevotella intermedia; 24 hrs): 1.0189 | metabolic activity: OD 492 nm divided by OD of control (control = 1) (Prevotella intermedia; 48 hrs): 0.9864 | metabolic activity: OD 492 nm divided by OD of control (control = 1) (Streptococcus mitis; 24 hrs): 1.1736 | metabolic activity: OD 492 nm divided by OD of control (control = 1) (Streptococcus mitis; 48 hrs): 1.0570 | metabolic activity: OD 492 nm divided by OD of control (control = 1) (Fusobacterium nucleatum; 24 hrs): 0.9719 | metabolic activity: OD 492 nm divided by OD of control (control = 1) (Fusobacterium nucleatum; 48 hrs): 0.8307 | metabolic activity: OD 492 nm divided by OD of control (control = 1) (Streptococcus gordonii; 24 hrs): 1.0421 | metabolic activity: OD 492 nm divided by OD of control (control = 1) (Streptococcus gordonii; 48 hrs): 0.9733 | metabolic activity: OD 492 nm divided by OD of control (control = 1) (Streptococcus sobrinus; 24 hrs): 1.1016 | metabolic activity: OD 492 nm divided by OD of control (control = 1) (Streptococcus sobrinus; 48 hrs): 1.0504 | metabolic activity: OD 492 nm divided by OD of control (control = 1) (Capnocytophaga sputigena; 24 hrs): 0.5937 | metabolic activity: OD 492 nm divided by OD of control (control = 1) (Capnocytophaga sputigena; 48 hrs): 0.9124 | metabolic activity: OD 492 nm divided by OD of control (control = 1) (Streptococcus salivarius; 24 hrs): 1.0195 | metabolic activity: OD 492 nm divided by OD of control (control = 1) (Streptococcus salivarius; 48 hrs): 0.9869 | metabolic activity: OD 492 nm divided by OD of control (control = 1) (Actinomyces naeslundii; 24 hrs): 1.5398 | metabolic activity: OD 492 nm divided by OD of control (control = 1) (Actinomyces naeslundii; 48 hrs): 2.0357 | metabolic activity: OD 492 nm divided by OD of control (control = 1) (Veillonella parvula; 24 hrs): 0.9056 | metabolic activity: OD 492 nm divided by OD of control (control = 1) (Veillonella parvula; 48 hrs): 0.7447 | metabolic activity: OD 492 nm divided by OD of control (control = 1) (Actinomyces viscosus; 24 hrs): 1.7502 | metabolic activity: OD 492 nm divided by OD of control (control = 1) (Actinomyces viscosus; 48 hrs): 2.9576 | metabolic activity: OD 492 nm divided by OD of control (control = 1) (Porphyromonas gingivalis; 24 hrs): 0.7783 | metabolic activity: OD 492 nm divided by OD of control (control = 1) (Porphyromonas gingivalis; 48 hrs): 0.7811
